Patent US5571806A, “Dibenz[b,f][1,4]oxazepin(and thiazepin)-11(10H)-ones and-thiones and their use in the prevention or treatment of HIV infection” (Boehringer Ingelheim Pharmaceuticals, Inc., priority 1994, dated 1996)

test system: HIV-1; experiment: Human T Cell Culture Assay (HIV-1 induced syncytia formation in C8166 cells); format: cell-based, HIV-1 HTLV-IIIB strain (human C8166 T-cells); details: HTLV-IIIB, four days after virus challenge, compound concentration not given
Description: In order to confirm that compounds which are active in the RT Assay also have the ability to inhibit HIV replication in a living system, a compound of formula I was also tested in the human T-Cell Culture Assay described below.
Assay Theory: Formation of syncytia is a feature of in vitro cultures of CD4+ T-cells infected with HIV-1. In this assay, T-cells are treated with a putative replication inhibiting compound and then infected with HIV-1. After incubation the culture is checked for the formation of syncytia. The absence or reduction is the number of syncytia is used as a measure of the test compound's ability to inhibit HIV replication.
Assay Method: The target cells, designated C8166, are a subclone of human lymphoma cells of T-cell origin and are established at an initial density of 5×10^4 per 100 μl in RPMI 1640 (+10% fetal bovine serum) culture medium in 96 well flat bottom plates. A selected amount of test compound, dissolved in DMSO is included. After 24 hours, 50-100 TCID50 's (the dose that results in induced effect in 50% of test cultures) of the HTLV-IIIB strain of HIV-1 (2) are innoculated into each culture. Control cultures receive compound or virus only. […] The percent inhibition by the test compound is determined by comparison with control values. […]

In the case of `CCCN1C(=O)c2ccccc2Oc2ccccc21` [Example 1, 10-Propyl-10H-Dibenz[b,f][1,4]Oxazepin-11-One], the “T-Cell Culture Assay (% inhibition)” value is reported as 93%.

biological target: T1, HIV-1 reverse transcriptase (Human immunodeficiency virus type 1 group M subtype B, UniProt P03367); experiment: Reverse Transcriptase (RT) Assay (RNA-dependent DNA polymerase activity); format: biochemical, Human Immunodeficiency Virus (HIV-1), LAV strain; details: 10 μg/ml; poly r(C)/oligo d(G) template, 60 minutes, room temperature; read-out: RT Inhibition (% @ 10 μg/ml)
T1 construct: Reverse transcriptase enzyme from the LAV strain of Human Immuno-deficiencyVirus (HIV-1); made in house; host or cells: E. coli JM109 (species of the strain is own knowledge), DNA clone pBRTprtl+ in expression vector pIBI21 (lac promoter)
Text: As stated before, the compounds of formula I inhibit the enzymatic activity of HIV-1 RT. Based upon testing of these compounds, as described below, it is known that they inhibit the RNA-dependent DNA polymerase activity of HIV RT.
Utilizing the Reverse Transcriptase (RT) Assay described below, compounds can be tested for their ability to inhibit the RNA-dependent DNA polymerase activity of HIV RT. Certain specific compounds, described in the Examples which appear below, were so tested.
Among the enzymes for which Human Immunodeficiency Virus (HIV-1) encodes is a reverse transcriptase (1), so-named because it transcribes a DNA copy from an RNA template. This activity can be quantitatively measured in a cell-free enzyme assay which has been previously described (2), and is based upon the observation that reverse transcriptase is able to use a synthetic template [poly r(C) primed with oligo d(G)] to transcribe a radio-labelled, acid-precipitable DNA strand utilizing ^3 H-dGTP as a substrate. […]
a) Preparation of the enzyme
Reverse transcriptase enzyme from the LAV strain of Human Immuno-deficiencyVirus (HIV-1) (1) was isolated from the bacterial strain JM109 (3) expressing the DNA clone pBRTprtl+(2) which is under the control of the lac promotor in the expression vector pIBI21 (4). An overnight culture grown in 2XYT medium (37° C., 225 rpm) (5) supplemented with […] ampicillin for positive selection is inoculated at a 1:40 dilution into M9 medium supplemented with 10 mg/ml thiamine, 0.5% casamino acids, and […] ampicillin (5). The culture is incubated (37° C., 225 rpm) until it reaches an OD540 of 0.3-0.4. At that time the repressor inhibitor IPTG (isopropyl b-D-thiogalactopyranoside) is added to 0.5 mM and incubated for 2 additional hours. Bacteria are pelletted, resuspended in a 50 mM Tris, 0.6 mM EDTA, 0.375M NaCl buffer and digested by the addition of lysozyme (1 mg/ml) for 30 minutes on ice. The cells are lysed by the addition to 0.2% NP-40 and brought to 1M NaCl.
After removal of the insoluble debris by centrifugation, the protein is precipitated by the addition of 3 volumes of saturated aqueous ammonium sulfate. The enzyme is pelleted, resuspended in RT buffer (50 mM Tris pH 7.5, 1 mM EDTA, 5 mMDTT, 0.1% NP-40, 0.1M NaCl, and 50% glycerol) and stored at -70° C. for further use. […]
b) Composition of 2X concentrated stock reaction mixture
Stock Reagent 2X Mix Concentration
[poly r(C)/oligo d(G)](5:1)
The 2X concentrated stock reaction mixture is aliquoted and stored at -20° C. The mixture is stable and thawed for use in each assay. This enzyme assay has been adapted to a 96 well microtiter plate system, and has been previously described (6). Tris buffer (50 mM, pH 7.4), vehicle (solvent diluted to match the compound dilution), or compounds in vehicle are dispensed into 96-well microtiter plates (10 μl/well; 3 wells/compound). The HIV RT enzyme is thawed, diluted in 50 mM Tris pH 7.4 so that fifteen μl of diluted enzyme contain 0.001 Unit (one unit is that amount of enzyme to transform 1 micromole of substrate per minute at 25° C.), and 15 μl are dispensed per well. Twenty μl of 0.12-0.5M EDTA are added to the first three wells of the microtiter plate. EDTA chelates the Mg^++ present and prevents reverse transcription. This group serves as background polymerization which is subtracted from all other groups. Twenty-five μl of the 2X reaction mixture are added to all wells and the assay is allowed to incubate at room temperature for 60 minutes. The assay is terminated by precipitating the DNA in each well with 50μl of 10% trichloracetic acid (TCA) in 1% sodium pyrophosphate. The microtiter plate is incubated for 15 minutes at 4° C. and the precipitate is fixed onto #30 glass fiber paper (Schleicher & Schuell) using a Skatron semi-automatic harvester. […]

First: NC(=O)CN1C(=O)c2cc(N)ccc2Oc2ccccc21 [Example 15]
Second: CCN1C(=O)c2cc(N)ccc2Oc2ccccc21 [Example 16]
The inhibition at 10 µg/mL of the first is lower: 82% for the first, 100% for the second.

Going from `C[S+]([O-])CN1C(=O)c2ccccc2Oc2ccccc21` (stereo not drawn) [Example 35] to `CCN1C(=O)c2ccccc2Oc2ccccc21` [Example 8], the inhibition at 10 µg/mL rises from 58% to 100%.

Going from `CC(C)N1C(=O)c2ccccc2Oc2ccccc21` [Example 2, 10-Isopropyl-10H-Dibenz[b,f][1,4]Oxazepin-11-One] to `CN1C(=O)c2ccccc2Oc2ccccc21` [Example 10], the inhibition at 10 µg/mL falls from 100% to 93%.

Compared with `O=C1c2ccccc2Oc2ccccc2N1CC(F)(F)F` [Example 48], `O=C1c2ccccc2Oc2ccccc2N1CCF` [Example 46] is higher in inhibition at 10 µg/mL: 87% for the first, 93% for the second.

Compared with `CCOC(=O)CN1C(=O)c2ccccc2Oc2ccccc21` [Example 43], `C=C(C)CN1C(=O)c2ccccc2Oc2ccccc21` [Example 11] is higher in inhibition at 10 µg/mL: 76% for the first, 77% for the second.

Going from `COc1cccc2c1Oc1ccccc1N(CC(N)=O)C2=O` [Example 13] to `Cc1ccc2c(c1)Oc1ccccc1C(=O)N2CC(N)=O` [Example 31], the inhibition at 10 µg/mL rises from 32% to 77%.

Compared with `Nc1ccc2c(c1)C(=O)Nc1cc(Cl)ccc1O2` [Example 17], `Cc1ccc2c(c1)NC(=O)c1cc(N)ccc1O2` [Example 18] is higher in inhibition at 10 µg/mL: 67% for the first, 71% for the second.

Compared with `CN1C(=O)c2ccccc2Sc2ccccc21` [Example 49], `CCCN1C(=O)c2ccccc2Sc2ccccc21` [Example 5, 10-n-Propyl-Dibenz[b,f][1.4]Thiazepin-11(10H)-One] is higher in inhibition at 10 µg/mL: 94% for the first, 98% for the second.

Compared with `CNc1ccc2c(c1)C(=O)Nc1ccccc1O2` [Example 28], `Nc1ccc2c(c1)C(=O)Nc1ccccc1O2` [Example 14] is higher in inhibition at 10 µg/mL: 30% for the first, 85% for the second.

First: O=C1Nc2ccccc2Sc2ccccc21 [Example 4, Dibenz[b,f][1,4]Thiazepin-11(10H)-One]
Second: O=C1Nc2ccccc2Oc2ccccc21 [Example 7]
The inhibition at 10 µg/mL of the first is higher: 43% for the first, 22% for the second.

First: CSCN1C(=O)c2ccccc2Oc2ccccc21 [Example 34]
Second: CSCCN1C(=O)c2ccccc2Oc2ccccc21 [Example 36]
The inhibition at 10 µg/mL of the first is higher: 100% for the first, 85% for the second.

Compared with `NC(=O)CN1C(=O)c2ccccc2Sc2ccccc21` [Example 50], `O=C1c2ccccc2Oc2ccccc2N1C(F)=CI` [Example 47] is higher in inhibition at 10 µg/mL: 66% for the first, 92% for the second.

Going from `Cc1ccc2c(c1)Oc1ccc(N)cc1C(=O)N2` [Example 30] to `Nc1ccc2c(c1)Oc1ccccc1C(=O)N2` [Example 21], the inhibition at 10 µg/mL falls from 96% to 3%.

First: CSCCN1C(=O)c2ccccc2Oc2cc(C)ccc21 [Example 39]
Second: Cc1ccc2c(c1)Oc1ccccc1C(=O)N2C[S+](C)[O-] (stereo not drawn) [Example 40]
The inhibition at 10 µg/mL of the first is higher: 95% for the first, 77% for the second.

First: CN1C(=O)c2cc(N)ccc2Oc2ccccc21 [Example 22]
Second: CN1C(=O)c2ccc(N)cc2Oc2ccccc21 [Example 25]
The inhibition at 10 µg/mL of the first is higher: 99% for the first, 26% for the second.

Going from `CCN1C(=O)c2cc(N)ccc2Oc2ccc(C)cc21` [Example 19] to `CCN1C(=O)c2cc(N)ccc2Oc2ccc(Cl)cc21` [Example 20], the inhibition at 10 µg/mL falls from 100% to 95%.

Going from `CSCCN1C(=O)c2ccc(Cl)cc2Oc2ccccc21` [Example 38] to `CSCCN1C(=O)c2cc(Cl)ccc2Oc2ccccc21` [Example 41], the inhibition at 10 µg/mL falls from 83% to 49%.

First: CCOc1ccc2c(c1)Oc1ccccc1C(=O)N2C [Example 32]
Second: CCOc1ccc2c(c1)Oc1ccccc1C(=O)N2CC [Example 33]
The inhibition at 10 µg/mL of the first is higher: 77% for the first, 74% for the second.

Compared with `CN1C(=O)c2ccccc2Oc2cc(N)ccc21` [Example 24], `CNc1ccc2c(c1)C(=O)N(C)c1ccccc1O2` [Example 26] is higher in inhibition at 10 µg/mL: 44% for the first, 75% for the second.

Compared with `CCOc1ccc2c(c1)Oc1ccccc1C(=O)N2` [Example 42], `COc1ccc2c(c1)Oc1ccccc1C(=O)N2` [Example 44] is lower in inhibition at 10 µg/mL: 30% for the first, 27% for the second.

First: CSCN1C(=O)c2ccc(Cl)cc2Oc2ccccc21 [Example 37]
Second: CCCN1C(=O)c2ccccc2Oc2ccccc21 [Example 1, 10-Propyl-10H-Dibenz[b,f][1,4]Oxazepin-11-One]
The inhibition at 10 µg/mL of the first is lower: 98% for the first, 100% for the second.

Going from `Nc1ccc2c(c1)Oc1ccccc1NC2=O` [Example 23] to `C=CCN1C(=O)c2cc(N)ccc2Oc2ccccc21` [Example 27], the inhibition at 10 µg/mL rises from 25% to 100%.

Compared with `CCC(=O)N1C(=O)c2ccccc2Oc2ccccc21` [Example 12], `C=CCN1C(=O)c2ccccc2Oc2ccccc21` [Example 9] is higher in inhibition at 10 µg/mL: 44% for the first, 98% for the second.

First: COc1ccc2c(c1)Oc1cccc(OC)c1C(=O)N2 [Example 45]
Second: CCCN1C(=S)c2ccccc2Oc2ccccc21 [Example 3, 10 -Propyl-10H-Dibenz [b,f][1,4]Oxazepin-11-Thione]
The inhibition at 10 µg/mL of the first is lower: 44% for the first, 94% for the second.

same assay, conditions: read-out: RT Inhibition (% @ 10 μg/ml)

First: Cc1ccc2c(c1)Oc1ccc(N)cc1C(=O)N2C [Example 6, 2-Amino-7,10-Dimethyldibenz[b,f][1,4]Oxazepin-11(10H)-One]
Second: C=CCN1C(=O)c2ccccc2Oc2cc(N)ccc21 [Example 29]
The inhibition at 10 µg/mL of the first is higher: 100% for the first, 89% for the second.
